This note sets out measurements from patent US9371280B2, “Substituted pyrrolidine-2-carboxamides” (Hoffmann-La Roche Inc., priority 2012, dated 2016).

Molecules are shown by their SMILES. Structures can show the parent of a compound that is named as a salt.

Chain of interaction between p53 and MDM2 proteins (recombinant GST-tagged MDM2) (Q00987 whole entry): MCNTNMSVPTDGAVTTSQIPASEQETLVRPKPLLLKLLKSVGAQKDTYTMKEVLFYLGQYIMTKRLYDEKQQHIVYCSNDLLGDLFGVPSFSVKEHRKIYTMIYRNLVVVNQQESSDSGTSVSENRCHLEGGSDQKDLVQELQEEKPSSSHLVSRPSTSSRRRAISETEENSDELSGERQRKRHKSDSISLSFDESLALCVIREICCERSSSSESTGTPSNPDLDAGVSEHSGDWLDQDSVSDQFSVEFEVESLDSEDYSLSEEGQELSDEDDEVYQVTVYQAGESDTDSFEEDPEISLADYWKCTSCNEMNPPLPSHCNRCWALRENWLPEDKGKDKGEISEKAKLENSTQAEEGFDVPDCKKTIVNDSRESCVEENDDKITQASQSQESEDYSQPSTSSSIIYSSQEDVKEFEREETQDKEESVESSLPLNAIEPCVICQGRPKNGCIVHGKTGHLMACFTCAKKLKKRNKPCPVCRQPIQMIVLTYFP

One assay addresses interaction between p53 and MDM2 proteins (recombinant GST-tagged MDM2) (Homo sapiens, UniProt Q00987). Kind of assay: HTRF assay of inhibition of the p53-MDM2 interaction (GST-MDM2 / biotinylated p53 peptide).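 Note: FRET read-out from Eu-labelled anti-GST antibody to streptavidin-APC, with 90 nM N-terminally biotinylated p53 peptide and 160 ng/ml GST-MDM2 in Tris-borate saline containing 1 mM DTT, 384-well format.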
Conditions: not given
In kind it is binding. For orientation: In TR-FRET formats the signal depends on donor and acceptor labels being close together.
For `COc1cc(C(=O)OCCCC(=O)O)ccc1NC(=O)[C@@H]1N[C@@H](CC(C)(C)C)[C@](C#N)(c2ccc(Cl)cc2F)[C@H]1c1cccc(Cl)c1F` [Example 36, 4-{[(2R,3S,4R,5S)-4-(4-Chloro-2-fluoro-phenyl)-3-(3-chloro-2-fluoro-phenyl)-4-cyano-5-(2,2-dimethyl-propyl)-pyrrolidine-2-carbonyl]-amino}-3-methoxy-benzoic acid 3-carboxy-propyl ester], the IC50 was found to be 4.98 nM.

Still in this assay, the particulars now being: HTRF, 0.02% BSA, 37° C. 1 h.
Regarding `CCN(CC)CCNC(=O)c1ccc(NC(=O)[C@@H]2N[C@@H](CC(C)(C)C)[C@](C#N)(c3ccc(Cl)cc3F)[C@H]2c2cccc(Cl)c2F)c(OC)c1` [Example 23, (2R,3S,4R,5S)-4-(4-Chloro-2-fluoro-phenyl)-3-(3-chloro-2-fluoro-phenyl)-4-cyano-5-(2,2-dimethyl-propyl)-pyrrolidine-2-carboxylic acid [4-(2-diethylamino-ethylcarbamoyl)-2-methoxy-phenyl]-amide, hydrochloride], the IC50 came out at 9.34 nM. Still for that read-out and setting: the result for `COc1cc(C(=O)OCC(=O)N(C)C)ccc1NC(=O)[C@@H]1N[C@@H](CC(C)(C)C)[C@](C#N)(c2ccc(Cl)cc2F)[C@H]1c1cccc(Cl)c1F` [Example 24, 4-{[(2R,3S,4R,5S)-4-(4-Chloro-2-fluoro-phenyl)-3-(3-chloro-2-fluoro-phenyl)-4-cyano-5-(2,2-dimethyl-propyl)-pyrrolidine-2-carbonyl]-amino}-3-methoxy-benzoic acid dimethylcarbamoylmethyl ester, hydrochloride] reads 13.9 nM. For the compound `COc1cc(C(=O)OCC(C)N2CCOCC2)ccc1NC(=O)[C@@H]1N[C@@H](CC(C)(C)C)[C@](C#N)(c2ccc(Cl)cc2F)[C@H]1c1cccc(Cl)c1F` (stereo partly drawn) [Example 25, 4-{[(2R,3S,4R,5S)-4-(4-Chloro-2-fluoro-phenyl)-3-(3-chloro-2-fluoro-phenyl)-4-cyano-5-(2,2-dimethyl-propyl)-pyrrolidine-2-carbonyl]-amino}-3-methoxy-benzoic acid 2-morpholin-4-yl-propyl ester, hydrochloride], the IC50 turned out to be 15.5 nM.

Take `COc1cc(C(=O)NCCN2CCN(C)CC2)ccc1NC(=O)[C@@H]1N[C@@H](CC(C)(C)C)[C@](C#N)(c2ccc(Cl)cc2F)[C@H]1c1cccc(Cl)c1F` [Example 26, (2R,3S,4R,5S)-4-(4-Chloro-2-fluoro-phenyl)-3-(3-chloro-2-fluoro-phenyl)-4-cyano-5-(2,2-dimethyl-propyl)-pyrrolidine-2-carboxylic acid {2-methoxy-4-[2-(4-methyl-piperazin-1-yl)-ethylcarbamoyl]-phenyl}-amide, hydrochloride]: the IC50 is 8.67 nM. The same measure, in the same setting: the result for `COc1cc(C(=O)N(C)C)ccc1NC(=O)[C@@H]1N[C@@H](CC(C)(C)C)[C@](C#N)(c2ccc(Cl)cc2F)[C@H]1c1cccc(Cl)c1F` [Example 27, (2R,3S,4R,5S)-4-(4-Chloro-2-fluoro-phenyl)-3-(3-chloro-2-fluoro-phenyl)-4-cyano-5-(2,2-dimethyl-propyl)-pyrrolidine-2-carboxylic acid (4-dimethylcarbamoyl-2-methoxy-phenyl)-amide] reads 12.9 nM.

Turning to `COc1cc(C(=O)OC[C@H](O)[C@@H](O)[C@H](O)[C@H](O)CO)ccc1NC(=O)[C@@H]1N[C@@H](CC(C)(C)C)[C@](C#N)(c2ccc(Cl)cc2F)[C@H]1c1cccc(Cl)c1F` [Example 28, 4-{[(2R,3S,4R,5S)-4-(4-Chloro-2-fluoro-phenyl)-3-(3-chloro-2-fluoro-phenyl)-4-cyano-5-(2,2-dimethyl-propyl)-pyrrolidine-2-carbonyl]-amino}-3-methoxy-benzoic acid (2S,3R,4R,5R)-2,3,4,5,6-pentahydroxy-hexyl ester], the half-inhibitory concentration (IC50) was 6.02 nM. As to `COc1cc(C(=O)OCCOC(=O)CNC(=O)OC(C)(C)C)ccc1NC(=O)[C@@H]1N[C@@H](CC(C)(C)C)[C@](C#N)(c2ccc(Cl)cc2F)[C@H]1c1cccc(Cl)c1F` [Example 29, 4-{[(2R,3S,4R,5S)-4-(4-Chloro-2-fluoro-phenyl)-3-(3-chloro-2-fluoro-phenyl)-4-cyano-5-(2,2-dimethyl-propyl)-pyrrolidine-2-carbonyl]-amino}-3-methoxy-benzoic acid 2-(2-tert-butoxycarbonylamino-acetoxy)-ethyl ester], the 50% inhibitory concentration (IC50) was found to be 16.7 nM. As to `COc1cc(C(=O)OCCOC(=O)CN)ccc1NC(=O)[C@@H]1N[C@@H](CC(C)(C)C)[C@](C#N)(c2ccc(Cl)cc2F)[C@H]1c1cccc(Cl)c1F` [Example 30, 4-{[(2R,3S,4R,5S)-4-(4-Chloro-2-fluoro-phenyl)-3-(3-chloro-2-fluoro-phenyl)-4-cyano-5-(2,2-dimethyl-propyl)-pyrrolidine-2-carbonyl]-amino}-3-methoxy-benzoic acid 2-(2-amino-acetoxy)-ethyl ester], the IC50 came to 17.2 nM. The same measure, in the same setting: the figure for `COc1cc(C(=O)OCCOC(=O)CN(C)C(=O)OC(C)(C)C)ccc1NC(=O)[C@@H]1N[C@@H](CC(C)(C)C)[C@](C#N)(c2ccc(Cl)cc2F)[C@H]1c1cccc(Cl)c1F` [Example 31, 4-{[(2R,3S,4R,5S)-4-(4-Chloro-2-fluoro-phenyl)-3-(3-chloro-2-fluoro-phenyl)-4-cyano-5-(2,2-dimethyl-propyl)-pyrrolidine-2-carbonyl]-amino}-3-methoxy-benzoic acid 2-[2-(tert-butoxycarbonyl-methyl-amino)-acetoxy]-ethyl ester] is 13.7 nM; for `CNCC(=O)OCCOC(=O)c1ccc(NC(=O)[C@@H]2N[C@@H](CC(C)(C)C)[C@](C#N)(c3ccc(Cl)cc3F)[C@H]2c2cccc(Cl)c2F)c(OC)c1` [Example 32, 4-{[(2R,3S,4R,5S)-4-(4-Chloro-2-fluoro-phenyl)-3-(3-chloro-2-fluoro-phenyl)-4-cyano-5-(2,2-dimethyl-propyl)-pyrrolidine-2-carbonyl]-amino}-3-methoxy-benzoic acid 2-(2-methylamino-acetoxy)-ethyl ester, hydrochloride] it is 16.4 nM; for `COc1cc(C(=O)OCCOC(=O)[C@@H](NC(=O)[C@H](C)N(C)C(=O)OC(C)(C)C)C(C)C)ccc1NC(=O)[C@@H]1N[C@@H](CC(C)(C)C)[C@](C#N)(c2ccc(Cl)cc2F)[C@H]1c1cccc(Cl)c1F` [Example 33, 4-{[(2R,3S,4R,5S)-4-(4-Chloro-2-fluoro-phenyl)-3-(3-chloro-2-fluoro-phenyl)-4-cyano-5-(2,2-dimethyl-propyl)-pyrrolidine-2-carbonyl]-amino}-3-methoxy-benzoic acid 2-[(S)-3-methyl-2-((S)-2-tert-butoxycarbonyl-methylamino-propionylamino)-butyryloxy]-ethyl ester] it is 19.9 nM. Still for that read-out and setting: the figure for `COC(=O)COC(=O)c1ccc(NC(=O)[C@@H]2N[C@@H](CC(C)(C)C)[C@](C#N)(c3ccc(Cl)cc3F)[C@H]2c2cccc(Cl)c2F)c(OC)c1` [Example 35, 4-{[(2R,3S,4R,5S)-4-(4-Chloro-2-fluoro-phenyl)-3-(3-chloro-2-fluoro-phenyl)-4-cyano-5-(2,2-dimethyl-propyl)-pyrrolidine-2-carbonyl]-amino}-3-methoxy-benzoic acid methoxycarbonylmethyl ester] is 12.5 nM.

As usually defined, the IC50 is the concentration at which inhibition is half-maximal.
